The record followed here is ChEMBL document CHEMBL4811320, “Design, synthesis and biological evaluation of 2-styryl-5-hydroxy-4-pyrone derivatives and analogues as multiple functional agents with the potential for the treatment of Alzheimer's disease” (Bioorg Med Chem, 2021).

Test [1] in a line: Antioxidant activity assessed as trolox equivalent antioxidant capacity. The test is classed as functional.
Another test deals with Histamine H3 receptor (Homo sapiens, UniProt Q9Y5N1). Description: Antagonist activity at human H3 receptor by TR-FRET assay. The test is classed as functional. On the technique in general: TR-FRET usually uses a lanthanide donor and a delayed reading to cut background.
Histamine H3 receptor, sequence (Q9Y5N1 whole entry): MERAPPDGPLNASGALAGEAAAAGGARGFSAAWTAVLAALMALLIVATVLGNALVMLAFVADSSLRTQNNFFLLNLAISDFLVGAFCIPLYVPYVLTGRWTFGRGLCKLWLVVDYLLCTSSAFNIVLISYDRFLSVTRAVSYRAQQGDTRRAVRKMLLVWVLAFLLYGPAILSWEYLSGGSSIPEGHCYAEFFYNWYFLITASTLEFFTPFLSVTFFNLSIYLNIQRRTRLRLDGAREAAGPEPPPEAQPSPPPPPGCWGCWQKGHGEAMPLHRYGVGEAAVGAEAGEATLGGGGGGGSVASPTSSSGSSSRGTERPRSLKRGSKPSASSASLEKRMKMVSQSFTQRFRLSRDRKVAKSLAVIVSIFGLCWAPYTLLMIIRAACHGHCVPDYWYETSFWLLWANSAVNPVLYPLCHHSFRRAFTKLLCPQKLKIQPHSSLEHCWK
Test [2] addresses T1, Amyloid-beta precursor protein (Homo sapiens, UniProt P05067). Description: Inhibition of amyloid beta (1 to 42) (unknown origin) self-induced aggregation at 20 uM incubated for 24 hrs by Thioflavin T based fluorometric assay relative to control.
The target of test [3] is T1, Amyloid-beta precursor protein. Description: Inhibition of amyloid beta (1 to 42) (unknown origin) self-induced aggregation incubated for 24 hrs by Thioflavin T based fluorometric assay.
The nature of test [4]: Metal chelating activity assessed as compound-Cu2+ complex formation by UV-Vis spectroscopic analysis.
The nature of test [5]: Metal chelating activity assessed as compound-Fe3+ complex formation by UV-Vis spectroscopic analysis.
A short description of test [6]: Metal chelating activity assessed as formation of Cu2+-compound complex stoichiometry ratio of 2:1 in presence of CuCl2 by Job's plot analysis.
Test [7] is described as follows: Inhibition of copper-induced amyloid beta (1 to 42) (unknown origin) aggregation at 50 uM measured after 24 hrs by thioflavin T based fluorescence assay.
Test [8] in a line: Disaggregation of copper-induced amyloid beta (1 to 42) (unknown origin) preformed fibrils at 50 uM measured after 24 hrs by transmission electron microscopic analysis.
Test [9] can be described thus: Metal chelating activity assessed as mole fraction required to show 2:1 stoichiometry ratio for compound-Cu2+ complex formation in presence of CuCl2 by Job's plot analysis.
The target in test [10] is T1, Amyloid-beta precursor protein. Description: Disaggregation of self-induced amyloid beta (1 to 42) (unknown origin) preformed fibrils at 20 uM measured after 24 hrs by transmission electron microscopic analysis.
For test [11] the target is unchanged. Description: Disaggregation of self-induced amyloid beta (1 to 42) (unknown origin) preformed fibrils assessed as reduction in fluorescence intensity at 20 uM after 24 hrs by thioflavin-T fluorescence assay relative to control. Also noted: scale not given: the % may be the effect or the level left.
The nature of test [12]: Disaggregation of copper-induced amyloid beta (1 to 42) (unknown origin) preformed fibrils at 50 uM measured after 24 hrs by ThT fluorescence assay.
A short description of test [13]: Inhibition of copper-induced amyloid beta (1 to 42) (unknown origin) aggregation at 50 uM measured after 24 hrs by transmission electron microscopic analysis.
In test [14] the target is T1, Amyloid-beta precursor protein. The experiment in a line: Inhibition of amyloid beta (1 to 42) (unknown origin) self-induced aggregation at 20 uM incubated for 24 hrs by transmission electron microscopic analysis.

The structures appear in SMILES notation. Activity calls are given as the source filed them. No cut-off for these calls is given here.

T1 sequence (P05067 whole entry): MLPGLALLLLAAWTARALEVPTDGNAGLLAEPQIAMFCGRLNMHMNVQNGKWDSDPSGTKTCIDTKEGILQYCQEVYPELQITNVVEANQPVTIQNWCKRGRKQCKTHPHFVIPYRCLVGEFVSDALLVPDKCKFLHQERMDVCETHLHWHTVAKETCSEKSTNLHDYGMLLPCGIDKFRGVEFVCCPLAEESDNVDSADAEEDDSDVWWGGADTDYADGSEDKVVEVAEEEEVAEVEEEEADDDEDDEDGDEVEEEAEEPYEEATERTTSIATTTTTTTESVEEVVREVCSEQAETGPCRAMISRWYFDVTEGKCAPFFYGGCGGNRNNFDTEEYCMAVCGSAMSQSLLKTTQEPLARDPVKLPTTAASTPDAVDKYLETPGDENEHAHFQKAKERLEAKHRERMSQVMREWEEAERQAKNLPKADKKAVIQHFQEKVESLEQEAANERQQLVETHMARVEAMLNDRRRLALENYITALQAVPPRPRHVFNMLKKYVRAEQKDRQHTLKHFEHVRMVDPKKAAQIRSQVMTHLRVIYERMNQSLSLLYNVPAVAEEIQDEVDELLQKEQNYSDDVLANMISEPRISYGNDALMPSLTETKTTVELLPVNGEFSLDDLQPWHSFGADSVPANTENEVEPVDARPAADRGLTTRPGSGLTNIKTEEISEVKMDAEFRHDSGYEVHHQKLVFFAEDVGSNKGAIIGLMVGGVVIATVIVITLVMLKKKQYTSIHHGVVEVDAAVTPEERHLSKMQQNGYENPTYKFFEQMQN

On to `COc1cc(/C=C/C(=O)CC(=O)/C=C/c2ccc(O)c(OC)c2)ccc1O`, for which the Activity in test [1] is 1.11.
A word on the IC50: it is the concentration that inhibits the measured activity by half. One may read the inhibition as how much of the control response was suppressed. Turning to `Oc1cccc2ccc(/C=C/c3ccc(OCCCN4CCCC4)cc3)nc12`, the 50% inhibitory concentration (IC50) against Histamine H3 receptor was found to be 16 nM. Further, the Activity in test [1] was 0.73. The compound also showed an inhibition in test [2] of 17.6%.
As for `O=c1cc(/C=C/c2ccc(OCCCN3CCOCC3)cc2)occ1O`, the values for the IC50 (at Histamine H3 receptor; in test [3]) were 68.8 nM and 4120 nM, respectively. Further, the Activity in test [1] amounted to 4.39. In test [2], this compound came in with an inhibition of 93.3%.
Turning to `Cn1cc(O)c(=O)cc1/C=C/c1ccc(OCCCN2CCCCC2)cc1`, the values for the IC50 (against Histamine H3 receptor; in [3]) were 4.74 nM and 2570 nM, respectively. The outcome in test [4] and in [5] was Active. Besides, the Activity in test [1] was 1.23. This compound yielded an inhibition in test [2] of 87%.
On to `CN1CCN(CCCOc2ccc(/C=C/c3cc(=O)c(O)co3)cc2)CC1`, for which the results for the IC50 (against Histamine H3 receptor; in test [3]) were 178 nM and 5540 nM, respectively. Further, the Activity in test [1] is 4.05. The compound further gave an inhibition in test [2] of 89.8%.
`Oc1cccc2ccc(/C=C/c3ccc(OCCCN4CCCCC4)cc3)nc12` yielded an IC50 at Histamine H3 receptor of 14.5 nM. Besides, in test [1], the Activity stood at 0.96. The inhibition in test [2] was determined as 15.7%.
`O=c1cc(/C=C/c2ccc(OCCCN3CCCCC3)cc2)occ1O`: the IC50 against Histamine H3 receptor came to 2.74 nM; in test [3] it was 3260 nM. The outcome in test [4], in [6], in test [8], in test [10], in test [5] and in test [12] was Active. Also, the inhibition entry in [7], in test [13] and in test [14] was “Active” each time. For the same compound, the Activity was determined as 5.22 in test [1] and 29.4% in test [11]. The Activity (mole fraction) in test [9] was 0.682. The inhibition in test [2] turned out to be 90.8%.
As for `CCN(CC)CCCOc1ccc(/C=C/c2cc(=O)c(O)co2)cc1`, the IC50 on Histamine H3 receptor turned out to be 16.9 nM; in test [3] it was 3950 nM. In addition, the result in test [4] and in [5] was Active. In test [1], the Activity was determined as 5.08. This compound returned an inhibition in test [2] of 94.6%.
For the compound `Cn1cc(O)c(=O)cc1/C=C/c1ccc(OCCCN2CCOCC2)cc1`, the results for the IC50 (against Histamine H3 receptor; in test [3]) were 30.1 nM and 5320 nM, respectively. Moreover, the Activity in test [1] worked out at 1.35. For the same compound, the inhibition in [2] was found to be 71.9%.
`Cc1oc(/C=C/c2ccc(OCCCN3CCCC3)cc2)cc(=O)c1O`: the half-maximal inhibitory concentration (IC50) on Histamine H3 receptor was found to be 4.91 nM; in [3], 7010 nM. Besides, in test [1], the Activity is 2.12. In addition, in test [2], the inhibition came to 74.7%.
In the case of `CN(C)CCCOc1ccc(/C=C/c2cc(=O)c(O)cn2C)cc1`, the IC50 on Histamine H3 receptor stood at 85.4 nM; in test [3] it was 6180 nM. Also, the Activity in test [1] is 1.34. Moreover, in test [2], the inhibition was 70.4%.
Turning to `Cc1c(C)c2c(c(C)c1O)CCC(C)(C(=O)O)O2` (centres undefined), the Activity in [1] came out at 1.
In the case of `Cn1cc(O)c(=O)cc1/C=C/c1ccc(OCCCN2CCCC2)cc1`, the figures for the IC50 (at Histamine H3 receptor; in test [3]) were 3.37 nM and 3290 nM, respectively. Moreover, the result in test [4] and in test [5] was Active. In addition, the Activity in test [1] was 1.28. The inhibition in test [2] was found to be 85.4%.
`CCn1cc(O)c(=O)cc1/C=C/c1ccc(OCCCN2CCCC2)cc1`: the IC50 was found to be 2.18 nM on Histamine H3 receptor and 2070 nM in test [3]. The result in [4] and in test [5] was Active. Besides, the Activity in [1] came out at 1.43. This compound displayed an inhibition in test [2] of 97.6%.
For `Cc1oc(/C=C/c2ccc(OCCCN3CCCCC3)cc2)cc(=O)c1O`, the IC50 at Histamine H3 receptor was determined as 2.65 nM; in test [3], 6260 nM. Also, the Activity in [1] is 1.74. The inhibition in [2] is 74.8%.
For `CCn1cc(O)c(=O)cc1/C=C/c1ccc(OCCCN2CCCCC2)cc1`, the results for the half-maximal inhibitory concentration (IC50) (against Histamine H3 receptor; in test [3]) were 5.07 nM and 3050 nM, respectively. The result in test [4] and in test [5] was Active. Further, the Activity in test [1] came to 1.78. The compound also registered an inhibition in [2] of 86.8%.
With `CN1CCN(CCCOc2ccc(/C=C/c3cc(=O)c(O)cn3C)cc2)CC1`, the half-inhibitory concentration (IC50) was found to be 353 nM at Histamine H3 receptor and 6020 nM in [3]. Moreover, the Activity in [1] came to 0.73. For the same compound, in test [2], the inhibition came to 75.7%.
`CN(C)CCCOc1ccc(/C=C/c2cc(=O)c(O)co2)cc1`: the IC50 was 104 nM against Histamine H3 receptor and 4510 nM in [3]. In test [1], the Activity was 2.21. Besides, the inhibition in [2] is 76.7%.
In the case of `CCN(CC)CCCOc1ccc(/C=C/c2cc(=O)c(O)cn2C)cc1`, the IC50 turned out to be 7.06 nM at Histamine H3 receptor and 5380 nM in test [3]. In addition, the result in test [4] and in test [5] was Active. Besides, the Activity in test [1] turned out to be 1.43. This compound registered an inhibition in test [2] of 85%.
As to `O=c1cc(/C=C/c2ccc(O)cc2)occ1O`, the Activity in [1] came to 2.03.
In the case of `O=c1cc(/C=C/c2ccc(OCCCN3CCCC3)cc2)occ1O`, the concentration for half-maximal inhibition (IC50) against Histamine H3 receptor was 8.25 nM; in [3], 2240 nM. Besides, the outcome in [4], in test [6], in [8], in [10], in test [5] and in [12] was Active. In addition, the inhibition entry in test [7], in [13] and in [14] was “Active” each time. The Activity came to 4.97 in [1] and 35.1% in test [11]. The Activity (mole fraction) in test [9] worked out at 0.671. The same compound yielded an inhibition in [2] of 91.4%.
For `CCN(CC)CCCC(C)Nc1ccnc2cc(Cl)ccc12` (centres undefined), the result in test [8] and in test [12] was Active.
